Experimental findings from patent publication EP1857556A1, “Genetically engineered Pseudomonas fluorescens strains as biosensor for trehalose detection and quantification in a sample” (INSTITUT NATIONAL DE LA RECHERCHE AGRONOMIQUE (INRA), priority 2006, dated 2007) are described below.

In series [1] the test system is Pyt 6. The series is described as follows: semi-quantitative high-throughput X-Gal colorimetric trehalose assay with Pyt 6. The format is cell-based, Pseudomonas fluorescens. Particulars: semi-quantitative method; for visible induction: Pyt 6, sugars (2 %), X-Gal, 18 hours at 27°C. The method, then: For instance, the Inventors have developed a semi-quantitative method of assaying trehalose in a sample. Said method comprises the steps consisting of: • a) contacting the sample with a suspension of Pyt 6, precultured to exponential growth, at OD 600 nm = about 0.1, with a ratio about 1:20 (preferably 10 µl of the sample, optionally diluted, are contacted with 190 µl of the Pyt 6 suspension atOD600nm=0.1); • b) adding about 2 µl X-Gal (20 mg/ml); • c) incubation the mixture during 16-20 hours, preferably18 hours, at 27°C (preferably with agitation at 150 rpm), • c) observing and/or measuring the blue coloration elicited by X-Gal processing; and • d) comparing the blue coloration observed in step c) with that elicited by a standard of trehalose contacted with a suspension of Pyt 6, precultured to exponential growth, at OD 600 nm = about 0.1, with a ratio 1:10 (preferably 10 µl of the standards are contacted with 190 µl of the Pyt 6 suspension at OD 600 nm = 0.1) and X-Gal (2 µl, 20 mg/ml); whereby if the blue coloration observed in step c) is above that of observed with the standard, then the concentration of trehalose in the sample is above trehalose concentration in the standard.
From the knowledge derived from the use of the qualitative and quantitative methods, the inventors have developed a semi-quantitative method that allows a high throughput pre-screening of the presence of trehalose in liquid samples. The invention helps also to the check quickly the quality of controls without trehalose before applying the quantitative method. The semi-quantitative method combines a direct colorimetric observation with the use of the chromogenic X-Gal and the conditions of Pyt 6 culture derived from the quantitative method. The detection limit is 0.5 mM trehalose in 10 µl of the tested liquid sample (biological or other extracts).
This method was carried out according to the following steps : • preculture of Pyt 6 to exponential growth in the BCAA medium at 27°C, • distribution of 190 µl of this Pyt 6 suspension at OD 600 nm = 0.1 in wells of a 96 well microtiter plate , • incorporation of 2 µl X-Gal (20 mg/ml) in each well, • incorporation of 10 µl of a standard range of trehalose (0.1 mM to 2 mM trehalose) or 10 µl of tested samples or 10 µl of pure water or culture medium for the blank control, • incubation during 18 hours at 150 rpm at 27°C, • comparative observation of the intensity of the blue color in wells, • the lower detection limit is 0.5 mM trehalose in the tested sample.

The test system of the next series is Pyt 5. The series is described as follows: visual assessment of β-galactosidase activity (blue color intensity) on X-gal buffered CAA medium, mutant Pyt 5. The format is cell-based, P. fluorescens ATCC 17400. Further details: β-galactosidase activities: key: -: no induction; (+): faintish induction; +: weak induction; ++: highly induction; +++: extremely strong induction. From the text: (§1) So, Pyt 6 was chosen as a good candidate to develop the biosensor test in the further study.
(§2) Table 1. Influence of added sugars in buffered (pH 7) CAA medium for the β-galactosidase activities of P. fluorescens ATCC 17400 derived mutants on visual assessment of blue color intensity

Series [2] has as its system Pyt 6. The series is described as follows: visual assessment of β-galactosidase activity (blue color intensity) on X-gal buffered CAA medium, mutant Pyt 6. As to β-galactosidase activities: key: -: no induction; (+): faintish induction; +: weak induction; ++: highly induction; +++: extremely strong induction. It counts as cell-based, P. fluorescens ATCC 17400.
Description: as §1, §2

Series [3] in a line: effect of boiling on trehalose, read out with Pyt 6 luminescence (Figure 8). The format is physicochemical. Particulars: boiling of the samples, 5 min at 100°C (Figure 8). On the procedure:
The extract derived from 1 g of Ggt mycelium cultured for 7 days were tested. For the positive control, 10 ng of purified β-gal and 1 mM trehalose solution with Pyt 6 were assessed. Results shown are mean values from 3 repeated counting. Error bars indicate standard deviations.
The fungal extraction was performed as follows. Mycelium are pre-cultured (Gaeumannomyces. graminis (Ggt): 5 days on PDA (Potato Dextrose 39 g/L, agar 20 g/L); Laccaria bicolor. (Lb) 10 days on P5 (0.25 g Di NH4 tartrate, 0.5 g KH2PO4, 0.25 g MgSO4 7 H2O, 2.5 g maltose D+, 10 g glucose D+, 0.5 ml thiamine-HCl (100 mg/L), 0.5 ml Kanieltra oligoelement solution (100 ml/L), 10 g agar, 480 ml H2O, adjusted pH to 5.5 with HCl or NaOH). Growing mycelium plugs are explanted to BCAA agar (as defined above) with cellophane membrane or the glass bead/membrane system with liquid BCAA. The cellophane membranes were previously boiled in ultra-pure water + EDTA (372 mg.l-1) during 15 minutes, washed abundantly with ultra-pure water and sterilised by autoclaving twice. […]
Boiling of the fungal extracts is expected to denature endogenous β-gal and therefore avoid interference with trehalose measurement. […] Additionally, it was observed that when Ggt mycelium extract (diluted to 1/10) was boiled, no endogenous β-galactosidase activity was ever detected (Figure 8).

Regarding `OC[C@H]1O[C@H](O[C@H]2[C@H](O)[C@@H](O)C(O)O[C@@H]2CO)[C@H](O)[C@@H](O)[C@@H]1O` (mixture of isomers) [maltose], the visible induction entry in the series on Pyt 6 [1] is given as “no visible induction”. Moreover, the β-galactosidase activities result is “++” with Pyt 5 (Pyt 5, 0.2 % maltose added to buffered (pH 7) CAA medium); “++” with Pyt 5 (Pyt 5, 0.5% maltose added to buffered (pH 7) CAA medium); “-” in the series with Pyt 6 [2] (Pyt 6, 0.2 % maltose added to buffered (pH 7) CAA medium); “-” in the series on Pyt 6 [2] (Pyt 6, 0.5% maltose added to buffered (pH 7) CAA medium). The treA induction result with Pyt 5 (Pyt 5, visual assessment on X-gal medium) was “weak induction”. Besides, the treA expression entry in the series with Pyt 6 [2] (strain as received under the label Pyt 6 (storage tubes inverted)) is reported as “triggered”.
As for `O=C[C@@H](O)[C@H](O)[C@H](O)CO` [arabinose], the visible induction result with Pyt 6 [1] is “no visible induction”.
Regarding `O=C(CO)[C@@H](O)[C@H](O)[C@H](O)CO` [fructose], the visible induction result with Pyt 6 [1] was “no visible induction”.
Take `O=C[C@H](O)[C@@H](O)[C@@H](O)[C@H](O)CO` [galactose]: in the series on Pyt 6 [1], the visible induction entry was “no visible induction”.
The same measure, in the same setting: under `OCC(O)CO` [glycerol] stands “no visible induction”.
In the series with Pyt 6 [1] (trehalose in 10 µl of the tested liquid sample), `OC[C@H]1O[C@H](O[C@H]2O[C@H](CO)[C@@H](O)[C@H](O)[C@H]2O)[C@H](O)[C@@H](O)[C@@H]1O` [trehalose, Trehalose] returned a detection limit of 0.5 mM. Further, the β-galactosidase activities entry in the series on Pyt 5 (Pyt 5, 10 mM trehalose added to buffered (pH 7) CAA medium) was “+++”; in the series with Pyt 5 (Pyt 5, 10mM trehalose together with 0.2 % glucose), “+++”; with Pyt 5 (Pyt 5, 10 mM trehalose together with 0.2 % maltose), “+++”; in the series on Pyt 5 (Pyt 5, 10 mM trehalose together with 0.5% maltose), “+++”; in the series on Pyt 5 (Pyt 5, 10 mM trehalose together with 2 % glucose), “+++”; with Pyt 6 [2] (Pyt 6, 10 mM trehalose added to buffered (pH 7) CAA medium), “+++”. The β-galactosidase activities entry is on record as “+++” in the series with Pyt 6 [2] (Pyt 6, 10mM trehalose together with 0.2 % glucose); “+++” in the series with Pyt 6 [2] (Pyt 6, 10 mM trehalose together with 0.2 % maltose); “+++” in the series on Pyt 6 [2] (Pyt 6, 10 mM trehalose together with 0.5% maltose); “+++” with Pyt 6 [2] (Pyt 6, 10 mM trehalose together with 2 % glucose). In addition, the treA expression entry with Pyt 5 (strain as received under the label Pyt 5 (storage tubes inverted)) is listed as “specifically induced”. The stability to boiling entry in series [3] is “not affected”. In addition, the treA induction result with Pyt 6 [2] (Pyt 6, trehalose 10^-3 M, visual assessment on X-gal medium) is recorded as “treA induction”.
